14 compounds from patent US7935819B2, “Cyclic urea derivatives, preparation thereof and pharmaceutical use thereof as kinase inhibitors” (Aventis Pharma S.A., priority 2006, dated 2011) can be followed below.

Assay [1] addresses T1, IGF-1R (human cytoplasmic domain fused with GST) (Homo sapiens, UniProt P08069).
T1 construct: The human cytoplasmic domain of IGF-1R was cloned by fusion with glutathione S-transferase (GST); made in house; host or cells: SF21 insect cells (baculovirus, pFastBac-GST)
The assay can be described thus: Kinase IGF-1R test (Test A): inhibition of autophosphorylation of the enzyme, HTRF. The format is biochemical. As to conditions: 120 μM ATP. How it is done:
A) Experimental Protocol for the Kinase IGF-1R Test:
The inhibitory activity of the compounds on IGF1R is determined by measuring the inhibition of autophosphorylation of the enzyme using a time-resolved fluorescence test (HTRF). The human cytoplasmic domain of IGF-1R was cloned by fusion with glutathione S-transferase (GST) in the baculovirus expression vector pFastBac-GST. The protein is expressed in the SF21 cells and purified to about 80% homogeneity. For the enzymatic test, the test compound at 10 mM dissolved in DMSO is diluted in 1/3 steps in a 50 mM Hepes, pH 7.5, 5 mM MnCl2, 50 mM NaCl, 3% Glycerol, 0.025% Tween 20 buffer. To measure the inhibition, the successive dilutions of the compound are preincubated for 30 minutes and 90 minutes in the presence of 5 nM of enzyme, the final DMSO concentration not exceeding 1%. The enzymatic reaction is initiated to have a final ATP concentration of 120 μM, and is stopped after 5 minutes by addition of 100 mM Hepes, pH 7.0 buffer containing 0.4 M of potassium fluoride, 133 mM EDTA, 0.1% BSA, the XL665-labelled antibody anti-GST and the anti-phosphotyrosine antibody conjugated to europium cryptate Eu—K (Cis-Bio Int.). The characteristics of the two fluorophores, XL-665 and Eu—K, are available in G. Mathis et al., Anticancer Research, 1997, 17, pages 3011-3014. The energy transfer between the excited europium cryptate to the acceptor XL665 is proportional to the degree of autophosphorylation of IGF-1R. The specific long-lasting signal of XL-665 is measured in a GENios Pro TECAN plate counter. The inhibition of autophosphorylation of IGF-1R at time 30 minutes and 90 minutes with the test compounds of the invention is calculated relative to a 1% in DMSO control, whose activity is measured in the absence of compound. The curve representing the percentage of inhibition as a function of the log of the concentration is established to determine the concentration corresponding to 50% inhibition (IC50).
On the technique in general: Time-resolved FRET reads energy transfer from a long-lived donor to a nearby acceptor.

For the next assay, the target named is T2, IGF1R in MCF-7 cells (Homo sapiens, UniProt P08069).
T2 construct: endogenous in cells; host or cells: MCF-7 cells
The assay can be described thus: Autophosphorylation of IGF-1R in MCF7 cells after stimulation with IGF-1 (Test B), ELISA. Type of assay: cell-based. Particulars: compound added one hour before IGF1 stimulation (10 minutes). Here is the method: B) Measurement of the Autophosphorylation of IGF-1r in MCF7 Cells after Stimulation with IGF-1
Cell Culturing and Execution of the Test:
The autophosphorylation of IGF1R in the IGF1-induced cells is evaluated by means of an ELISA technique (Enzyme Linked ImmunoSorbent Assay). The MCF-7 are seeded at 60 000 cells per well in 6-well plates and incubated at 37° C., 5% CO2 in medium containing 10% serum. After one night in 10% serum, the cells are deprived of serum for 24 hours. The compounds are added to the medium one hour before stimulation with IGF1. After 10 minutes of stimulation with IGF1, the cells are lysed with a buffer (Hepes 50 mM pH 7.6, Triton X100 1%, orthovanadate 2 mM, protease inhibitor cocktail). The cell lysates are incubated on a 96-well plate precoated with an anti-IGF1R antibody, followed by incubation with an anti-phosphotyrosine antibody coupled to the enzyme peroxidase. The level of peroxidase activity (measured by OD with a luminescent substrate) reflects the phosphorylation status of the receptor.
(§1) (i) The tests are performed in duplicate and the mean of the two tests is calculated.
(§2) (ii) The value of the signal of the maximum response is calculated from the positive control: cells stimulated with IGF1 without compound.
(§3) (iii) Value of the signal of the minimum response is calculated from the negative control: cells not stimulated with IGF1 without compound.
(§4) (iv) By using these values as maximum (100%) and minimum (0%), respectively, the data were normalized so as to give a percentage of the maximum response.
(§5) (v) A curve of dose response is plotted and the IC50 (the concentration of which the compound induces a 50% decrease in the signal) of the compound is calculated by non-linear regression analysis.

Assay [2] has as its target MEF-IGF1R cells (stable clone transfected with hIGF-1R) (Homo sapiens, UniProt P08069). Put plainly: Proliferation/viability of MEF-IGF1R (Test C), [14C]thymidine incorporation. Type of assay: cell-based. As to conditions: rhIGF1 100 ng/mL, 72 hours, read-out: Test C IC50. Here is the method: C) Measurement of the Proliferation/Viability of MEF-IGF1R
Cell culture: the MEF-IGF1R cells (stable clone of cells transfected with the receptor hIGF-1R) are cultured at 37° C. under 5% CO2 in EMEM medium containing 10% FCS.
Test procedure: the cells are seeded at 5000 cells per well in 96-well Cytostar plates (Amersham) with 0.2 mL of EMEM culture medium at 37° C. for 18 hours. The cells are then washed twice with EMEM medium and left to culture without serum for 24 hours. The compounds are then added at various concentrations in the presence of rhIGF1 (100 ng/mL) and 0.1 μCi of Thymidine [^14C] (specific activity ˜50 mCi/mmol) to give 0.2 mL of volume per well. After incubation for 72 hours in the presence of the compound, at 37° C. under 5% CO2, the incorporation of Thymidine [^14C] is measured by counting the radioactivity on a Microbeta trilux counter (Perkin-Elmer). The IC50 is determined from 10 increasing concentrations of the compound.
as §1, §2, §3, §4, §5

The mark [3] stands for this setting: preincubation with enzyme 30 minutes, read-out: Test A 30′ IC50.
[4] abbreviates: preincubation with enzyme 90 minutes, read-out: Test A 90′ IC50.

As usually defined, the IC50 is the concentration that gives 50% inhibition.

Like-named read-outs stand apart in the source and are kept apart here. Bounds are passed on as bounds.

Sequence of MEF-IGF1R cells (stable clone transfected with hIGF-1R) (P08069 whole entry, change not shown): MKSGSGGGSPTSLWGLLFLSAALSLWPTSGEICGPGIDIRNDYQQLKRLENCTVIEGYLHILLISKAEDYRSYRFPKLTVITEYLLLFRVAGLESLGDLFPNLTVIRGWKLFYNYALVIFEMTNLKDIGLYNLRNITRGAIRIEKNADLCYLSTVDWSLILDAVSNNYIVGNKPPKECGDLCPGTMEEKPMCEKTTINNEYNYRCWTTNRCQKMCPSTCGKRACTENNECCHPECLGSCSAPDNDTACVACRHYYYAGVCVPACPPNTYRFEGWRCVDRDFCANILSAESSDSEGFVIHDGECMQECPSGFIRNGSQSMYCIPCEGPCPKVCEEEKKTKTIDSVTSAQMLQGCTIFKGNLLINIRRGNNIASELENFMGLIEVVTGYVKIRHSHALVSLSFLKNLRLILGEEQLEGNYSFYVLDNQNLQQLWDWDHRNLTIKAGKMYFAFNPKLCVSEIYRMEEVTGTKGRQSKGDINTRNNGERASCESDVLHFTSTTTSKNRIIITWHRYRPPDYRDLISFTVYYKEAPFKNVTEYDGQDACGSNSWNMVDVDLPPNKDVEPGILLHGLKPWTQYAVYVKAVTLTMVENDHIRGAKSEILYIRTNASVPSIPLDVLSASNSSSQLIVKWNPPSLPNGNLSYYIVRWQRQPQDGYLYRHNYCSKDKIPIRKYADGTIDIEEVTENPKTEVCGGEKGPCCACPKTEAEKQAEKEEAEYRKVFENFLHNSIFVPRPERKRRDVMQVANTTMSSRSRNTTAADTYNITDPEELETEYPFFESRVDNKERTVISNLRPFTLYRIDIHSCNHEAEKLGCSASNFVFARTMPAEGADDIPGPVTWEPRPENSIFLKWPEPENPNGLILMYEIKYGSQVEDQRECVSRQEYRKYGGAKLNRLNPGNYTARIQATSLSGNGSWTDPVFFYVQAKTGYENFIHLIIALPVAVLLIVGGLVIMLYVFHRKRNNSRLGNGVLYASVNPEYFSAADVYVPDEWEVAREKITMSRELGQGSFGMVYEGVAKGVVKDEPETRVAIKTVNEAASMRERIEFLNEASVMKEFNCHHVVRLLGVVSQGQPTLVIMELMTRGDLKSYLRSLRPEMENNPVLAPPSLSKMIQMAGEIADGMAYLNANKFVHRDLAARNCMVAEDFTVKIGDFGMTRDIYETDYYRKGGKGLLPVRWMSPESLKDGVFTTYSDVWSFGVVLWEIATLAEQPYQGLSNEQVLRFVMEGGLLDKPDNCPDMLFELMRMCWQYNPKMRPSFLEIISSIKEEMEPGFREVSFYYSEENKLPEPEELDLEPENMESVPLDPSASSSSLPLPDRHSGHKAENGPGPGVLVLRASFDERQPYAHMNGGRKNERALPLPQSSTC
T2 sequence (P08069 31-1367): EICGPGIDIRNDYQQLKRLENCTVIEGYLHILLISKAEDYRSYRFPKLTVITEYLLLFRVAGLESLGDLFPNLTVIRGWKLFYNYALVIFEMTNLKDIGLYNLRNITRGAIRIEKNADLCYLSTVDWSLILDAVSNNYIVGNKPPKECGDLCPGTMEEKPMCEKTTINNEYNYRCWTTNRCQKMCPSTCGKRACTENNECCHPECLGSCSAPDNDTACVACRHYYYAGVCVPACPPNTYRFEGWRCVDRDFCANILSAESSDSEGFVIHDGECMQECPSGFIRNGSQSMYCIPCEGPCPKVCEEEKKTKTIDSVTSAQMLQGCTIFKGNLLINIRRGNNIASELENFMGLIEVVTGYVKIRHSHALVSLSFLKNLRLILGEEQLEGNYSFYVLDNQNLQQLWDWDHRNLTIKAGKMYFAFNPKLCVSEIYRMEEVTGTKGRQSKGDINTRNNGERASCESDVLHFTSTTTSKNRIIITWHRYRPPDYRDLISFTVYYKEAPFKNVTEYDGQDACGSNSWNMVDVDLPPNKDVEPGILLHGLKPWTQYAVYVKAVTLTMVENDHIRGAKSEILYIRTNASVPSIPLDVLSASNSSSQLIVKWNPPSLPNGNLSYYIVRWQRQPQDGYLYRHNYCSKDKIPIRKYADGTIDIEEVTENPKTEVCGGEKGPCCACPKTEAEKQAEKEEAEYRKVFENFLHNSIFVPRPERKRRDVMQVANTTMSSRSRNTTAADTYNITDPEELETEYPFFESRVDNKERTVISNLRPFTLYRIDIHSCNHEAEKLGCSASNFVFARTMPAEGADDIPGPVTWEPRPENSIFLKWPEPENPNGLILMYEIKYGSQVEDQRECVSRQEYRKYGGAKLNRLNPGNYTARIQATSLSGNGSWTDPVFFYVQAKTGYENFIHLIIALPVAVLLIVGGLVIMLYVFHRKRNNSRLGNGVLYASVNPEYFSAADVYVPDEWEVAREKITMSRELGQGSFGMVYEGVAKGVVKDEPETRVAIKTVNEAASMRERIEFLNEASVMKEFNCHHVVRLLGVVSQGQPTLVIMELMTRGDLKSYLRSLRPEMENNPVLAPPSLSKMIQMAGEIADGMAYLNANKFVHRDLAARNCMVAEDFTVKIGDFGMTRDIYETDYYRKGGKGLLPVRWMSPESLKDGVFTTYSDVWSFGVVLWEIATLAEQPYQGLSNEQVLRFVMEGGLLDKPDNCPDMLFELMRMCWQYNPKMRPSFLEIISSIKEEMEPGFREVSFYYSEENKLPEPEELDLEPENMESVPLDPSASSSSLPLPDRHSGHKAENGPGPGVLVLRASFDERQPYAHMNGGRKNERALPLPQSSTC
T1 sequence (P08069 960-1367 limits assumed): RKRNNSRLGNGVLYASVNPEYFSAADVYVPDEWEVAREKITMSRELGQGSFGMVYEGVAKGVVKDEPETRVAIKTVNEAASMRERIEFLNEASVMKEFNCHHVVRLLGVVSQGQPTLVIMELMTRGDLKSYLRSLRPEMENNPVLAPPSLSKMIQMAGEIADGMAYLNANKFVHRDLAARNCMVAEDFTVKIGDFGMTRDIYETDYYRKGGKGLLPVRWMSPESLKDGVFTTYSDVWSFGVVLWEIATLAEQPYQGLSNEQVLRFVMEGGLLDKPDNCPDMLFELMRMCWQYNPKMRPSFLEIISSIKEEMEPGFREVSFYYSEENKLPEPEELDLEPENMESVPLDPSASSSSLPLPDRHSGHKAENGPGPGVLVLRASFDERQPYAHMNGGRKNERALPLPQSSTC

As for `CC(C)(C)c1ccc(N2C(=O)N(Cc3ccnc(Nc4cccnc4)n3)C(C)(C)C2=O)cc1` [Example 1, 3-(4-tert-butylphenyl)-5,5-dimethyl-1-[2-(pyridin-3-ylamino)pyrimidin-4-ylmethyl]imidazolidine-2,4-dione], the IC50 in assay [1] (setting [3]) was 10 to 100 nM; in assay [1] (setting [4]), below 10 nM; against IGF1R in MCF-7 cells, below 10 nM. Moreover, the GI50 in assay [2] was below 10 nM.

Regarding `CC(C)(C)c1ccc(N2C(=O)N(Cc3ccnc(Nc4cncnc4)n3)C(C)(C)C2=O)cc1` [Example 8, 3-(4-tert-butylphenyl)-5,5-dimethyl-1-{[2-(pyrimidin-5-ylamino)pyrimidin-4-yl]methyl}imidazolidine-2,4-dione], the results for the IC50 (in assay [1] (setting [3]); in assay [1] (setting [4]); on IGF1R in MCF-7 cells) were 10 to 100 nM, below 10 nM and below 10 nM, respectively. In assay [2], the GI50 was below 10 nM.

On to `CC(C)(C)c1ccc(N2C(=O)N(Cc3ccnc(NC(=O)NC4CC4)c3)C(C)(C)C2=O)cc1` [Example 13, 1-(4-{[3-(4-tert-butylphenyl)-5,5-dimethyl-2,4-dioxoimidazolidin-1-yl]methyl}pyridin-2-yl)-3-cyclopropylurea], for which the IC50 (in assay [1] (setting [3]); in assay [1] (setting [4]); on IGF1R in MCF-7 cells) was 10 to 100 nM each time. For the same compound, the GI50 in assay [2] was 10 to 100 nM.

Take `CC(C)(C)c1ccc(N2C(=O)N(Cc3ccnc(NC(=O)NC4CCC4)c3)C(C)(C)C2=O)cc1` [Example 14, 1-(4-{[3-(4-tert-butylphenyl)-5,5-dimethyl-2,4-dioxoimidazolidin-1-yl]methyl}pyridin-2-yl)-3-cyclobutylurea]: the IC50 (in assay [1] (setting [3]); in assay [1] (setting [4]); on IGF1R in MCF-7 cells) was 10 to 100 nM each time. For the same compound, the GI50 in assay [2] fell in the range of 10 to 100 nM.

For the compound `CC(C)(C)c1ccc(N2C(=O)N(Cc3ccnc(NC(=O)N4CCC4)c3)C(C)(C)C2=O)cc1` [Example 18, N-(4-{[3-(4-tert-butylphenyl)-5,5-dimethyl-2,4-dioxoimidazolidin-1-yl]methyl}pyridin-2-yl)azetidine-1-carboxamide], the IC50 in assay [1] (setting [3]) is 10 to 100 nM; in assay [1] (setting [4]), 10 to 100 nM; against IGF1R in MCF-7 cells, below 10 nM. Moreover, the GI50 in assay [2] lay within 10 to 100 nM.

Take `CC(C)(C)c1ccc(N2C(=O)N(Cc3ccnc(NC(=O)N4CCCC4)c3)C(C)(C)C2=O)cc1` [Example 19, N-(4-{[3-(4-tert-butylphenyl)-5,5-dimethyl-2,4-dioxoimidazolidin-1-yl]methyl}pyridin-2-yl)pyrrolidine-1-carboxamide]: the half-maximal inhibitory concentration (IC50) in assay [1] (setting [3]) was 10 to 100 nM; in assay [1] (setting [4]), 10 to 100 nM; against IGF1R in MCF-7 cells, below 10 nM. The GI50 in assay [2] lay in the range of 10 to 100 nM.

For the compound `CCCCNC(=O)Nc1cc(CN2C(=O)N(c3ccc(C(C)(C)C)cc3)C(=O)C2(C)C)ccn1` [Example 28, 1-butyl-3-(4-{[3-(4-tert-butylphenyl)-5,5-dimethyl-2,4-dioxoimidazolidin-1-yl]methyl}pyridin-2-yl)urea], the IC50 (in assay [1] (setting [3]); in assay [1] (setting [4]); against IGF1R in MCF-7 cells) was 10 to 100 nM throughout. The GI50 in assay [2] is above 100 nM.

Turning to `CN(C)CC(=O)N1CC(C)(C)c2ccc(N3C(=O)N(Cc4ccnc(Nc5cccnc5)c4)C(C)(C)C3=O)cc21` [Example 31B, 3-[1-(N,N-dimethylglycyl)-3,3-dimethyl-2,3-dihydro-1H-indol-6-yl]-5,5-dimethyl-1-{[2-(pyridin-3-ylamino)pyridin-4-yl]methyl}imidazolidine-2,4-dione], the IC50 in assay [1] (setting [3]) was above 100 nM; in assay [1] (setting [4]), 10 to 100 nM; against IGF1R in MCF-7 cells it was 10 to 100 nM. The GI50 in assay [2] was below 10 nM.

Regarding `CN(C)CC(=O)N1CC(C)(C)c2ccc(N3C(=O)N(Cc4ccnc(NC(=O)N(C)C)c4)C(C)(C)C3=O)cc21` [Example 31C, 3-[4-({3-[1-(N,N-dimethylglycyl)-3,3-dimethyl-2,3-dihydro-1H-indol-6-yl]-5,5-dimethyl-2,4-dioxoimidazolidin-1-yl}methyl)pyridin-2-yl]-1,1-dimethylurea], the figures for the half-inhibitory concentration (IC50) (in assay [1] (setting [3]); in assay [1] (setting [4]); against IGF1R in MCF-7 cells) were above 100 nM, above 100 nM and 10 to 100 nM, respectively. The GI50 in assay [2] lay within 10 to 100 nM.

`CC(C)NCC(=O)N1CC(C)(C)c2ccc(N3C(=O)N(Cc4ccnc(Nc5cccnc5)c4)C(C)(C)C3=O)cc21` [Example 31D, 3-[1-(N-isopropylglycyl)-3,3-dimethyl-2,3-dihydro-1H-indol-6-yl]-5,5-dimethyl-1-{[2-(pyridin-3-ylamino)pyridin-4-yl]methyl}imidazolidine-2,4-dione]: the IC50 in assay [1] (setting [3]) was above 100 nM; in assay [1] (setting [4]) it was 10 to 100 nM; against IGF1R in MCF-7 cells, 10 to 100 nM. For the same compound, the GI50 in assay [2] was in the range of 10 to 100 nM.

As to `CC(C)NCC(=O)N1CC(C)(C)c2ccc(N3C(=O)N(Cc4ccnc(NC(=O)N(C)C)c4)C(C)(C)C3=O)cc21` [Example 31E, 3-[4-({3-[1-(N-isopropylglycyl)-3,3-dimethyl-2,3-dihydro-1H-indol-6-yl]-5,5-dimethyl-2,4-dioxoimidazolidin-1-yl}methyl)pyridin-2-yl]-1,1-dimethylurea], the IC50 in assay [1] (setting [3]) was above 100 nM; in assay [1] (setting [4]), above 100 nM; against IGF1R in MCF-7 cells it was 10 to 100 nM. For the same compound, in assay [2], the GI50 was in the range of 10 to 100 nM.

With `CC(C)(C)c1ccc(N2C(=O)N(Cc3ccnc(Nc4ccc(CN5CCCC5)cc4)c3)C(C)(C)C2=O)cc1` [Example 31F, 3-(4-tert-butylphenyl)-5,5-dimethyl-1-[(2-{[4-(pyrrolidin-1-ylmethyl)phenyl]amino}pyridin-4-yl)methyl]imidazolidine-2,4-dione], the IC50 in assay [1] (setting [3]) is 10 to 100 nM; in assay [1] (setting [4]) it was below 10 nM; against IGF1R in MCF-7 cells, 10 to 100 nM. Also, the GI50 in assay [2] is below 10 nM.

As for `CC(C)(C)c1ccc(N2C(=O)N(Cc3ccnc(Nc4cccc(CN5CCCC5)c4)c3)C(C)(C)C2=O)cc1` [Example 31G, 3-(4-tert-butylphenyl)-5,5-dimethyl-1-[(2-{[3-(pyrrolidin-1-ylmethyl)phenyl]amino}pyridin-4-yl)methyl]imidazolidine-2,4-dione], the 50% inhibitory concentration (IC50) in assay [1] (setting [3]) was 10 to 100 nM; in assay [1] (setting [4]), below 10 nM; on IGF1R in MCF-7 cells, 10 to 100 nM. The GI50 in assay [2] was below 10 nM.

As for `CC(C)(C)c1ccc(N2C(=O)N(Cc3ccnc(Nc4cccc(CCN5CCCC5)c4)c3)C(C)(C)C2=O)cc1` [Example 31H, 3-(4-tert-butylphenyl)-5,5-dimethyl-1-[(2-{[3-(2-pyrrolidin-1-ylethyl)phenyl]amino}pyridin-4-yl)methyl]imidazolidine-2,4-dione], the IC50 in assay [1] (setting [3]) is 10 to 100 nM; in assay [1] (setting [4]), below 10 nM; against IGF1R in MCF-7 cells, below 10 nM. Moreover, in assay [2], the GI50 was below 10 nM.
